The source of these data is patent publication US20010036955A1, “Method of inhibiting angiogenesis” (Genentech, Inc., priority 1998, published 2001).

Common to all, as to experiment: Real time RT-PCR (Taqman) assay in HUVEC
Common to all, as to assay type: cell-based, human

In one assay the test system is PAI-1 mRNA. The note with it: at 24 hr; HUVEC in three dimensional collagen gels; 10:M 15d-PGJ2. How it is done: (§1) This technique has been used to quantitatively monitor mRNA expression and has been described in detail previously (Heid, C. A. et al., (1996) Genome Methods 6:986-994; Gerber, H. et al., (1997) J. Biol. Chem. 272:23659-23667). Total RNA was extracted from HUVEC cultured in three dimensional collagen gels or on collagen-coated flasks for various times in 1× basal medium consisting of M199 supplemented with 1%FBS, 1× ITS, 2 mM L-glutamine, 50 μg/ml ascorbic acid, 26.5 mM NaHCO3, 100 U/ml penicillin and 100 U/ml streptomycin supplemented with 40 ng/ml bFGF (basic fibroblast growth factor), 40 ng/ml VEGF and 80 nM PMA […]. […] The primers and probes used were as follows: […] forward primer 5′-[…]-3′ (SEQ ID NO: 7), reverse primer 5′-CACCATCGCGACCAGATG-3′ (SEQ ID NO: 8), and probe 5′-[…]-3′ (SEQ ID NO: 9); […] forward primer 5′-TGACCTGCGGCAACTGG-3′ (SEQ ID NO: 10), reverse primer 5′-[…]-3′ (SEQ ID NO: 11), and probe 5′-[…]-3′ (SEQ ID NO: 12); human PPARβ gene forward primer 5′-[…]-3′ (SEQ ID NO: 13), reverse primer 5′-[…]-3′ (SEQ ID NO: 14), and probe 5′-[…]-3′ (SEQ ID NO: 15); human Flk/KDR gene forward primer 5′-[…]-3′ (SEQ ID NO: 16), reverse primer 5′-[…]-3′ (SEQ ID NO: 17), and probe 5′-[…]-3′ (SEQ ID NO: 18); human Flt-1 gene forward primer 5′-[…]-3′ (SEQ ID NO: 19), reverse primer 5′-[…]-3′ (SEQ ID NO: 20), and probe 5′-[…]-3′ (SEQ ID NO: 21); human uPA gene forward primer 5′-[…]-3′ (SEQ ID NO: 22), reverse primer 5′-GCGCACACCTGCCCTC-3′ (SEQ ID NO: 23), and probe 5′-[…]-3′ (SEQ ID NO: 24); human PAI-1 gene forward primer 5′-TCGTCCAGCGGGATCTGA-3′ (SEQ ID NO: 25), reverse primer 5′-GTGCTCCGGAACAGCCTG-3′ (SEQ ID NO: 26), and probe 5′-[…]-3′ (SEQ ID NO: 27); human glyceraldehyde-3-phosphate dehydrogenase (GAPDH) gene forward 5′-GAAGGTGAAGGTCGGAGTC-3′ (SEQ ID NO: 28), reverse 5′-[…]-3′ (SEQ ID NO: 29), and probe 5′-[…]-3′ (SEQ ID NO: 30). Total RNA (100 ng) was added to a 50 μl RT-PCR reaction mixture according to the manufacturer's protocol (Roche Molecular Systems, Inc., Branchburg, N.J.). The thermal cycling conditions included 1 cycle at 48° C. for 30 min, 1 cycle at 95° C. for 10 min, 40 cycles at 95° C. for 15 s, at 60° C. for 1 min and finally hold at 25° C. for 2 min. Standard curves for expression of each gene were generated by serial dilution of the total RNA isolated from HUVEC. […] Therefore, the relative mRNA expression of each gene was normalized to the level of GAPDH in the same RNA preparation.

The test system of another assay is Flt-1 mRNA. The note with it: HUVEC in three dimensional collagen gels; VEGF, bFGF, PMA; 10:M 15d-PGJ2. How it is done:
as §1

A further assay deals with uPA mRNA. The note with it: at 4 hr; HUVEC in three dimensional collagen gels; 10:M 15d-PGJ2. The procedure: as §1
Another assay deals with Flk/KDR mRNA. Conditions: HUVEC in three dimensional collagen gels; VEGF, bFGF, PMA; 10:M 15d-PGJ2. How it is done: as §1

Each structure is given as a SMILES string.

For `CCCCC/C=C/C=C1/C(=O)C=CC1C/C=C\CCCC(=O)O` (stereo not shown) [15d-PGJ2, 15-deoxy-delta^12,14-PGJ2], the PAI-1 gene expression entry in the assay with PAI-1 mRNA is listed as “increased”. In the assay with Flt-1 mRNA, the “Flt-1 mRNA induction by growth factors” value is given as “inhibited the induction”. Moreover, the “uPA mRNA” value with uPA mRNA is recorded as “reduced”. Also, the “KDR mRNA induction by growth factors” value in the assay on Flk/KDR mRNA was “inhibited the induction”.
